Experimental data taken from ChEMBL document CHEMBL1130907, “The novel cyclopropapyrroloindole(CPI) bisalkylators bearing 3,3'-(1,4-phenylene)diacryloyl group as a linker” (Bioorg Med Chem Lett, 1998).
≈ marks a conversion by molar mass, not a printed value.

Columns and labels:
[1] = test system: HeLa; test: In vitro cytotoxicity against HeLaS3 human uterine cervix carcinoma; assay type: functional, cell-based
[2] = test system: Mus musculus; test: In vivo antitumor activity against colon 26 murine adenocarcinoma in male CDF1 mice and was expressed as 50% tumor growth inhibition.; assay type: functional
[3] = test system: HeLa; test: In vitro cytotoxicity against HeLaS3 human uterine cervix carcinoma.; assay type: functional, cell-based
[4] = Ratio of MTD, maximum dose with in 10% body weight loss (ug/Kg) to that of TGI50 was reported; assay type: functional
[5] = Homo sapiens, HeLa, read-out: IC50

| Structure (SMILES) | IC50 [1, 5] [ng/mL] | TGI50 [2] [µg/kg] | IC50 [3] [ng/mL] | Ratio [4] | IC50 ([1]; hela) [ng/mL] |
| --- | --- | --- | --- | --- | --- |
| COC(=O)c1cc2c3c(cc(O)c2[nH]1)N(C(=O)/C=C/c1ccc(/C=C/C(=O)N2C[C@H](CCl)c4c2cc(O)c2[nH]c(C(=O)OC)cc42)cc1)C[C@H]3CCl | 0.023 (≈ 0.0309 nM) | 100 |  |  |  |
| COC(=O)c1c[nH]c2c(O)cc3c(c12)[C@H](CCl)CN3C(=O)/C=C/c1ccc(/C=C/C(=O)N2C[C@H](CCl)c3c2cc(O)c2[nH]cc(C(=O)OC)c32)cc1 |  | 0.757 | 0.00035 (≈ 0.000471 nM) | 10.3 |  |
| COC(=O)c1c(C(F)(F)F)[nH]c2c(O)cc3c(c12)[C@H](CCl)CN3C(=O)/C=C/c1ccc(/C=C/C(=O)N2C[C@H](CCl)c3c2cc(O)c2[nH]c(C(F)(F)F)c(C(=O)OC)c32)cc1 |  | 0.254 |  | 30.7 | 0.0027 (≈ 0.00307 nM) |
| COC(=O)c1c(C(F)(F)F)[nH]c2c(O)cc3c(c12)[C@H](CCl)CN3C(=O)c1cc2cc(-c3ccc4[nH]c(C(=O)N5C[C@@H](CCl)c6c5cc(O)c5[nH]c(C(F)(F)F)c(C(=O)OC)c65)cc4c3)ccc2[nH]1 |  | 0.3 |  | 3.3 | 0.0049 (≈ 0.00499 nM) |
| Cc1c[nH]c2c(O)cc3c(c12)[C@H](CCl)CN3C(=O)/C=C/c1ccc(/C=C/C(=O)N2C[C@H](CCl)c3c2cc(O)c2[nH]cc(C)c32)cc1 |  | 1.41 |  | 5.5 | 0.0013 (≈ 0.00198 nM) |
| O=C(/C=C/c1ccc(/C=C/C(=O)N2C[C@H](CCl)c3c2cc(O)c2[nH]c4ccccc4c32)cc1)N1C[C@@H](CCl)c2c1cc(O)c1[nH]c3ccccc3c21 | 0.072 (≈ 0.0989 nM) | 3.8 |  | 8.2 |  |
| COC(=O)c1c(C)[nH]c2c(O)cc3c(c12)[C@H](CCl)CN3C(=O)/C=C/c1ccc(/C=C/C(=O)N2C[C@H](CCl)c3c2cc(O)c2[nH]c(C)c(C(=O)OC)c32)cc1 |  | 0.891 | 0.00046 (≈ 0.000596 nM) | 8.8 |  |
| Cc1c[nH]c2c(O)cc3c(c12)[C@H](CCl)CN3C(=O)c1cc2cc(NC(=O)Nc3ccc4[nH]c(C(=O)N5C[C@@H](CCl)c6c5cc(O)c5[nH]cc(C)c65)cc4c3)ccc2[nH]1 [BIZELESIN] |  | 3.72 |  | 8.4 |  |
